Data from ChEMBL document CHEMBL1157646, “Melanogenesis inhibitors from the desert plant Anastatica hierochuntica in B16 melanoma cells” (Bioorg Med Chem, 2010).
Calls of active or inactive are those of the source. The rule behind the calls is not given here.

Assays:
[1] = Toxicity in mouse B16-4A5 cells assessed as inhibition of cell proliferation at 1 uM in presence of 1 mM theophylline after 72 hrs by WST8 dye reduction assay; assay type: cell-based
[2] = Toxicity in mouse B16-4A5 cells assessed as inhibition of cell proliferation at 3 uM in presence of 1 mM theophylline after 72 hrs by WST8 dye reduction assay; assay type: cell-based
[3] = Toxicity in mouse B16-4A5 cells assessed as inhibition of cell proliferation at 10 uM in presence of 1 mM theophylline after 72 hrs by WST8 dye reduction assay; assay type: cell-based
[4] = Toxicity in mouse B16-4A5 cells assessed as inhibition of cell proliferation at 30 uM in presence of 1 mM theophylline after 72 hrs by WST8 dye reduction assay; assay type: cell-based
[5] = Toxicity in mouse B16-4A5 cells assessed as inhibition of cell proliferation in presence of 1 mM theophylline after 72 hrs by WST8 dye reduction assay; assay type: cell-based
[6] = molecular target: T1, Tyrosinase (Agaricus bisporus) (UniProt O42713); assay: Inhibition of mushroom tyrosinase assessed as inhibition of melanin production from dopachrome by autoxidation at 100 uM
T1 sequence (whole entry): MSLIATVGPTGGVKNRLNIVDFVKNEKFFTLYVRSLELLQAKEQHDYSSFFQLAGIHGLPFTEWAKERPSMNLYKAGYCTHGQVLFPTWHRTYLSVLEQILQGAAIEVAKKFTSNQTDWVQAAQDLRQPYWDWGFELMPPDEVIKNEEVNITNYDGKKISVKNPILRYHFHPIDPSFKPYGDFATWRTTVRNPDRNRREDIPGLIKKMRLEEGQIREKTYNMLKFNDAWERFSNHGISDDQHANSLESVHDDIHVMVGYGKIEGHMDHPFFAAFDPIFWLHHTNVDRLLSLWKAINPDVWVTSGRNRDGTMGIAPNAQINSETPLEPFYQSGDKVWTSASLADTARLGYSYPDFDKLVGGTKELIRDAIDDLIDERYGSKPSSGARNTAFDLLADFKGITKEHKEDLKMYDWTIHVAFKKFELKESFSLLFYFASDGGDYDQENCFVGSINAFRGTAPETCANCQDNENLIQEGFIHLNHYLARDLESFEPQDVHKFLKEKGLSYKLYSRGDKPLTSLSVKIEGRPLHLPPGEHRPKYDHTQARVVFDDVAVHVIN

[7] = cells; conditions: Mus musculus, B16-4A5, 72 h, read-out: INH
Description: Inhibition of theophylline-stimulated melanogenesis in mouse B16-4A5 cells at 30 uM after 72 hrs

[8] = cells; conditions: Mus musculus, B16-4A5, 72 h, read-out: INH; remark: listed apart in the source
Description: Inhibition of theophylline-stimulated melanogenesis in mouse B16-4A5 cells at 10 uM after 72 hrs

[9] = cells; conditions: Mus musculus, B16-4A5, 72 h, read-out: INH; remark: listed apart in the source
Description: Inhibition of theophylline-stimulated melanogenesis in mouse B16-4A5 cells at 3 uM after 72 hrs

[10] = cells; conditions: Mus musculus, B16-4A5, 72 h, read-out: INH; remark: listed apart in the source
Description: Inhibition of theophylline-stimulated melanogenesis in mouse B16-4A5 cells at 1 uM after 72 hrs

[11] = Effect on tyrosinase mRNA expression in mouse B16-4A5 cells assessed as tyrosinase mRNA/beta-actin mRNA expression ratio at 3 uM in presence of 1 mM theophylline after 72 hrs by RT-PCR; assay type: functional
[12] = Effect on tyrosinase mRNA expression in mouse B16-4A5 cells assessed as tyrosinase mRNA/beta-actin mRNA expression ratio at 1 uM in presence of 1 mM theophylline after 72 hrs by RT-PCR; assay type: functional
[13] = Effect on tyrosinase mRNA expression in mouse B16-4A5 cells assessed as tyrosinase mRNA/beta-actin mRNA expression ratio at 10 uM in presence of 1 mM theophylline after 72 hrs by RT-PCR; assay type: functional
[14] = Effect on tyrosinase mRNA expression in mouse B16-4A5 cells assessed as tyrosinase mRNA/beta-actin mRNA expression ratio at 30 uM in presence of 1 mM theophylline after 72 hrs by RT-PCR; assay type: functional
[15] = Effect on TRP1 mRNA expression in mouse B16-4A5 cells assessed as TRP1 mRNA/beta-actin mRNA expression ratio at 1 uM in presence of 1 mM theophylline after 72 hrs by RT-PCR; assay type: functional
[16] = Effect on TRP1 mRNA expression in mouse B16-4A5 cells assessed as TRP1 mRNA/beta-actin mRNA expression ratio at 3 uM in presence of 1 mM theophylline after 72 hrs by RT-PCR; assay type: functional
[17] = Effect on TRP1 mRNA expression in mouse B16-4A5 cells assessed as TRP1 mRNA/beta-actin mRNA expression ratio at 10 uM in presence of 1 mM theophylline after 72 hrs by RT-PCR; assay type: functional
[18] = Effect on TRP1 mRNA expression in mouse B16-4A5 cells assessed as TRP1 mRNA/beta-actin mRNA expression ratio at 30 uM in presence of 1 mM theophylline after 72 hrs by RT-PCR; assay type: functional
[19] = Effect on TRP2 mRNA expression in mouse B16-4A5 cells assessed as TRP2 mRNA/beta-actin mRNA expression ratio at 1 uM in presence of 1 mM theophylline after 72 hrs by RT-PCR; assay type: functional
[20] = Effect on TRP2 mRNA expression in mouse B16-4A5 cells assessed as TRP2 mRNA/beta-actin mRNA expression ratio at 3 uM in presence of 1 mM theophylline after 72 hrs by RT-PCR; assay type: functional
[21] = Effect on TRP2 mRNA expression in mouse B16-4A5 cells assessed as TRP2 mRNA/beta-actin mRNA expression ratio at 10 uM in presence of 1 mM theophylline after 72 hrs by RT-PCR; assay type: functional
[22] = Effect on TRP2 mRNA expression in mouse B16-4A5 cells assessed as TRP2 mRNA/beta-actin mRNA expression ratio at 30 uM in presence of 1 mM theophylline after 72 hrs by RT-PCR; assay type: functional
[23] = Inhibition of theophylline-stimulated melanogenesis in mouse B16-4A5 cells at 100 uM after 72 hrs; assay type: functional; conditions: B16-4A5, 72 h
[24] = molecular target: T1, Tyrosinase (Agaricus bisporus); assay: Inhibition of mushroom tyrosinase at 1 uM
[25] = molecular target: T1, Tyrosinase (Agaricus bisporus); assay: Inhibition of mushroom tyrosinase at 3 uM

SMILES	inhibition at 72 h, 1 µM [1] [%]	inhibition at 72 h, 3 µM [2] [%]	inhibition at 72 h, 10 µM [3] [%]	inhibition at 72 h, 30 µM [4] [%]	IC50 at 72 h [5] [µM]	inhibition [6]	inhibition at 30 µM [7] [%]	inhibition at 10 µM [8] [%]	inhibition at 3 µM [9] [%]	inhibition at 1 µM [10] [%]	Ratio [11]	Ratio [12]	Ratio [13]	Ratio [14]	Ratio [15]	Ratio [16]	Ratio [17]	Ratio [18]	inhibition [24] [%]	inhibition [25] [%]	other results
COc1cc([C@H]2Oc3c(OC)cc(/C=C/C=O)cc3[C@@H]2CO)ccc1O	3.8	5.5	13.6	40.3	> 100	inactive	79.1	28.4	2.1	-2.8	–	–	–	–	–	–	–	–	–	–	–
COc1cccc(-c2cc(=O)c3ccccc3o2)c1N	–	–	–	–	–	–	–	–	–	–	1.23	1.01	1.61	1.79	0.92	1.18	1.32	1.53	–	–	Ratio [19]: 1.12; Ratio [20]: 1.2; Ratio [21]: 1.3; Ratio [22]: 1.69
COc1cc([C@H]2Oc3c(OC)cc(/C=C/CO)cc3[C@@H]2CO)ccc1O	-2.7	0.3	-1.6	23.3	> 100	inactive	72.7	18.6	-5.4	-1.6	–	–	–	–	–	–	–	–	–	–	–
COc1cc(C(O)C(CO)Oc2ccc(/C=C/C=O)cc2OC)ccc1O (stereo not given)	2.2	13.6	68.6	91.5	6.9	–	–	< 15.4	–	–	–	–	–	–	–	–	–	–	–	–	–
O=C1C[C@@H](c2ccc(O)c(O)c2)Oc2cc(O)cc(O)c21 [ERIODICTYOL]	–	–	–	< 8.8	–	inactive	46.3	32.3	10.5	6.5	–	–	–	–	–	–	–	–	–	–	inhibition at 100 µM [23]: 70.5%
COc1ccc([C@H]2Oc3c(OC)cc(/C=C/CO)cc3[C@@H]2CO)cc1OC [Hierochin B]	0.3	1.3	10.9	23.8	> 100	–	50.6	7.6	2.2	-1.6	–	–	–	–	–	–	–	–	–	–	–
COc1cc([C@H]2Oc3ccc([C@H]4Oc5cc(O)cc(O)c5C(=O)[C@@H]4O)cc3O[C@@H]2CO)ccc1O [ISOSILYBIN A]	-2.2	-1.5	-2.5	16	–	inactive	72.1	50.2	19.8	11.7	0.97	0.73	0.85	0.56	1.11	1.26	1.12	0.6	5.1	7	Ratio [19]: 0.68; Ratio [20]: 0.63; Ratio [21]: 0.63; Ratio [22]: 0.36
COc1cc([C@@H]2Oc3ccc([C@H]4Oc5cc(O)cc(O)c5C(=O)[C@@H]4O)cc3O[C@H]2CO)ccc1O [ISOSILYBIN B]	–	–	–	< 8.8	–	inactive	73.4	58	37.5	18.7	1.15	0.79	1.33	0.87	1.22	1.02	1.14	1.14	4.2	4.8	Ratio [19]: 0.97; Ratio [20]: 0.7; Ratio [21]: 0.74; Ratio [22]: 0.64
O=c1cc(-c2ccc(O)c(O)c2)oc2cc(O)cc(O)c12 [LUTEOLIN]	-4.8	-4.9	4	23.4	> 100	inactive	76.7	38.1	13.5	6.2	–	–	–	–	–	–	–	–	6.4	7.1	–
O=Cc1ccc(O)c(O)c1 [PROTOCATECHUALDEHYDE]	-4.7	-4.7	-3.7	11.4	–	inactive	57.9	40.4	13.8	8.5	–	–	–	–	–	–	–	–	3.1	2.3	–
